Test results as given in article PMC7932555, “A diffusible signal factor of the intestine dictates Salmonella invasion through its direct control of the virulence activator HilD” (PLoS Pathogens, 2021).
Numbering of substitutions follows the chain as printed. “And” between values parts separate entries of the source, which are not always exact repeats. Identical values can stand only once.

Tests used:
HilD^K293A = molecular target: T1, HilD^K293A (Salmonella typhimurium, UniProt P0CL08, K293A); test: EMSA of hilA promoter DNA with HilD K293A; format: biochemical; details: 10 nM hilA promoter DNA, 30 μM fatty acid
T1 construct: made in house; host or cells: E. coli BL21 (DE3)
T1 sequence (P0CL08 1-309 K293A): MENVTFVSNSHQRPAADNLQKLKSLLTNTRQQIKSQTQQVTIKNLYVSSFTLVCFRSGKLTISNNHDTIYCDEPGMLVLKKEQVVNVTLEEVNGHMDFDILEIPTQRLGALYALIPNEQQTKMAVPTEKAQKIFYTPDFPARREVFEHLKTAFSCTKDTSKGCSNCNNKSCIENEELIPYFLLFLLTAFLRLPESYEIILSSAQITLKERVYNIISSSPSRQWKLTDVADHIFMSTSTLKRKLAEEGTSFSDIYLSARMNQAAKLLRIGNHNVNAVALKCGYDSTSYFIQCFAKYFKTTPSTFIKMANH
Protocol: These were performed as previously described. Briefly, 10 nM hilA promoter DNA (-286 to +31) was mixed with 150 nM HilD in a binding buffer (100 mM Tris pH 7.5, 10 mM EDTA, 1M KCl, 1 mM DTT, 50% v/v glycerol). Fatty acids or control solvents were added at various concentrations. Binding reaction was performed at room temperature for 1 hour. Dye solution was added to final concentration of 1X and samples were separated on 10% acrylamide gels. DNA was stained using SYBR Safe and visualized in BioRad GelDoc imaging system.

wild type HilD = molecular target: T2, wild type HilD (Salmonella typhimurium, UniProt P0CL08); test: ELISA binding of fatty acid to wild type HilD; details: plates pre-adsorbed with 10 μM fatty acid, non-linear regression
T2 construct: made in house; host or cells: E. coli BL21 (DE3)
T2 sequence (P0CL08 1-309): T1 sequence (P0CL08 1-309 K293A) with A293K
Protocol: (§1) hilD or its mutated sequences were amplified and cloned into pET15b(+) under an N-terminal 6xHis tag. The constructs were transformed into E. coli BL21 (DE3) for expression. Transformants were induced with 5 mM IPTG for 4 hours. Cultures were centrifuged, lysed and treated with TALON beads as described above. Bound protein was eluted by applying 1 ml elution buffer to the columns. Elution was confirmed by SDS-PAGE. Following confirmation, eluted samples were dialyzed overnight in dialysis buffer (50 mM sodium phosphate, 300 mM NaCl, 10% glycerol). Protein concentration and quality were assessed by Bradford estimation and SDS-PAGE.
(§2) 96-well polystyrene plates were coated with 10 μM fatty acid in coating buffer (0.05 M sodium carbonate-bicarbonate, pH 9.3) and incubated overnight at 4°C. Wells were washed three times with PBS, followed by addition of blocking buffer (1% Ficoll 400 in PBS). After blocking, wells were washed three times with PBS, and different concentrations of proteins in blocking buffer were added and incubated at room temperature for 2 hours. […] After color development, reaction was stopped with 1N sulfuric acid and read spectrophotometrically at 490 nm. Binding was analyzed in GraphPad Prism.
(§3) All experiments were repeated twice and data of representative experiment have been shown. Kd was calculated by using Total One-Site binding in GraphPad Prism. […]

[1] = test system: Salmonella invasion of HEp-2 cells; test: Invasion of HEp-2 cells by gentamicin protection assay; format: cell-based
Protocol: Invasion was quantified by gentamicin protection assay. HEp-2 cells were seeded into 24-well cell culture plates (~10^5/well) and allowed to attach overnight at 37° C with 5% CO2). Salmonella strains were grown overnight without aeration in LB buffered with 100 mM HEPES, pH 8.0, with antibiotics and fatty acids or control solvent. Overnight cultures were washed with sterile PBS. Bacteria were added to the HEp-2 cell monolayer (MOI 1:10), centrifuged briefly (10 minutes at 200 x g) and incubated for 1 hour at 37°C. Wells were washed three times with sterile PBS followed by addition of media with 200 μg/mL gentamicin and incubated for 1 hour. Cells were then washed three times with sterile PBS and lysed by 0.1% Triton X-100. Intracellular bacteria were enumerated by spreading lysates onto LB agar plates with appropriate selection.

HilD^N44A = molecular target: T3, HilD^N44A (Salmonella typhimurium, UniProt P0CL08, N44A); test: ELISA binding of fatty acid to HilD N44A
T3 construct: made in house; host or cells: E. coli BL21 (DE3)
T3 sequence (P0CL08 1-309 N44A): T1 sequence (P0CL08 1-309 K293A) with N44A, A293K
Protocol: as §1, §2, §3

sipB::lacZY = sipB::lacZY reporter β-galactosidase assay in strains expressing wild type or mutant HilD; format: cell-based; details: 20 μM fatty acid (mix: 20 μM of each)
Excerpt: To test the effect of mutations in hilD, we initially constructed a background Salmonella strain without chromosomal hilC, rtsA and hilD and fused sipB to lacZY to assess SPI-1 expression. hilD with a C-terminal 3XFLAG tag was cloned into pWSK29 under control of the tetRA promoter for tetracycline-inducible expression. This plasmid was subjected to site-directed mutagenesis at specific nucleotides to change selected amino acids to alanine, using the Agilent QuikChange II Site-Directed Mutagenesis kit following their protocol. Mutations were confirmed by DNA sequencing.
Salmonella strains were inoculated into LB buffered with 100 mM MOPS [3-(N-morpholino) propanesulphonic acid] pH 6.7, with necessary antibiotics, and fatty acids or control solvents to be tested. Cultures were incubated at 37° C without aeration overnight, and assays were performed using an established protocol.

[2] = Salmonella expressing HilD K293A grown overnight with 20 μM fatty acid
[3] = Salmonella expressing HilD N44A grown overnight with 20 μM fatty acid
[4] = Salmonella expressing wild type HilD grown overnight with 20 μM fatty acid
[5] = strain expressing wild type HilD

Structure (SMILES) | effect on HilD binding to hilA promoter DNA (HilD^K293A) | Kd (wild type HilD) [µM] | inhibition of invasion of HEp-2 cells [1, 2] | inhibition of invasion of HEp-2 cells [1, 3] | inhibition of invasion of HEp-2 cells [1, 4] [fold] | binding in ELISA (in words) (HilD^N44A) | repression of sipB expression (sipB::lacZY; strain expressing HilD K43A) | repression of sipB expression (sipB::lacZY; strain expressing HilD K293A) | repression of sipB expression (sipB::lacZY; strain expressing HilD K294A) | repression of sipB expression (sipB::lacZY; strain expressing HilD Q290A) | repression of sipB expression (sipB::lacZY; [5]) | inhibition of invasion of HEp-2 cells ([1]; Salmonella expressing HilD Q290A grown overnight with 20 μM fatty acid)
CCCCCCCCCCCCC/C=C\C(=O)O [c2-HDA, cis-2-hexadecenoic acid] | remained bound to the hilA promoter | 3.5 | invaded HEp-2 cells despite the presence of 20 μM c2-HDA | unaffected | 8 | essentially no binding | Repression by c2-HDA, however, remained unaffected | No significant repression | No significant repression | Repression by c2-HDA, however, remained unaffected | ~11 fold and 10.9 fold | 
CCCCCCCCCCCCC/C=C/C(=O)O [t2-HDA, trans-2-hexadecenoic acid] | efficiently reduced the DNA binding capacity | 9.8 | 2 fold | unaffected | 2 | essentially no binding |  |  |  |  | 5.2 fold | had no effect
